Data taken from EPA's ToxValDB 9.5 (doi:10.2903/j.efsa.2009.299r).
In brackets after ≈: the same amount, converted by molar mass.

What was measured:
Rattus norvegicus = conditions: for LD50: acute, mortality
Canidae = conditions: chronic; duration: 2 years; oral; Dog Other; body weight
Colinus virginianus = conditions: for LC50: diet
Folsomia candida = conditions: chronic/long-term; duration: 28 days
Apis mellifera = conditions: acute, mortality
Bibionidae = conditions: chronic/long-term; duration: 28 days; other
Mus musculus = conditions: chronic; duration: 78 weeks; oral; diet; histopathology: neoplastic
Pimephales promelas = conditions: chronic/long-term; duration: 33 days; growth
Oncorhynchus mykiss = conditions: acute; duration: 96 hours; mortality

SMILES: CS(=O)c1cc(C(F)(F)F)cnc1C(=O)O (centres undefined)
- LD50 (Rattus norvegicus; oral): > 5000 mg/kg-day

SMILES: NC(=O)c1c(Cl)cccc1Cl [2,6-Dichlorobenzamide]
- NOAEL (Canidae): 4.5 mg/kg-day
- LC50 (Colinus virginianus; acute, oral, mortality): 1170 mg/kg-day
- LD50 (Rattus norvegicus; oral, F): 500 mg/kg-day
- LD50 (Rattus norvegicus; oral, M): 2000 mg/kg-day
- NOAEL (Rattus norvegicus; chronic, duration: 2 years, oral, histopathology: nonneoplastic): 5.7 mg/kg-day
- NOAEL (Oryctolagus sp.; reproduction developmental, body weight): 30 mg/kg-day

SMILES: O=C(O)c1ncc(C(F)(F)F)cc1Cl [3-Chloro-5-(trifluoromethyl)pyridine-2-carboxylic acid]
- LD50 (Rattus norvegicus; oral): 5000 mg/kg-day

SMILES: O=C(O)c1ncc(C(F)(F)F)cc1S(=O)(=O)O [3-Sulfo-5-trifluoromethyl pyridine-2-carboxylic acid]
- LD50 (Rattus norvegicus; oral): > 5000 mg/kg-day

SMILES: O=C(NCc1ncc(C(F)(F)F)cc1Cl)c1c(Cl)cccc1Cl [Fluopicolide]
- NOEC (Folsomia candida): 31.2 mg/kg
- LC50 (Colinus virginianus; acute, oral, mortality): > 1740 mg/kg-day
- LD50 (Colinus virginianus; acute, oral, mortality): > 2250 mg/kg-day
- NOEC (Colinus virginianus; reproduction developmental): 88.9 mg/kg-day
- LD50 (Apis mellifera; dermal): > 100 µg/piece
- LD50 (Apis mellifera; oral, unspecified): > 241 µg/piece
- LC50 (Tagia sp.; acute, duration: 14 days, mortality): > 500 mg/kg
- NOEC (Tagia sp.; chronic/long-term, duration: 28 days, growth): 62.5 mg/kg
- NOEC (Bibionidae): 49 mg/kg
- LD50 (Rattus norvegicus; oral): > 5000 mg/kg-day
- NOAEL (Rattus norvegicus; chronic, duration: 2 years, histopathology: nonneoplastic): 8.4 mg/kg-day
- NOAEL (Rattus norvegicus; short-term, duration: 28 days, oral, body weight): 17.7 mg/kg-day
- NOAEL (Rattus norvegicus; subchronic, duration: 90 days, oral, organ weight): 7.4 mg/kg-day
- NOAEL (Mus musculus): 7.9 mg/kg-day
- LC50 (Daphnia magna; acute, duration: 48 hours, mortality): > 1.8 µg/mL
- NOEC (Daphnia magna; chronic/long-term, duration: 21 days, reproduction): 0.37 mg/L
- NOAEL (Oryctolagus sp.; developmental, development): 20 mg/kg-day
- NOEL (Oryctolagus sp.; developmental, development): 20 mg/kg-day
- NOEC (Pimephales promelas): 0.155 mg/L
- LC50 (Oncorhynchus mykiss): 0.36 µg/mL (≈ 0.939 µM)
